Values of other authors, collected in US6831041B2, “Oil suspension concentrates based on a cyclohexenone oxime ether lithium salt and the use thereof as plant protection agents” (BASF Aktiengesellschaft, priority 2000, dated 2004).

Details: formulated together with calcium glyphosate as oil suspension concentrate

stability in formulation (in words): insufficient stability
Compound: CCCC(CC(C)=NOCC=CCl)C1=C(O)CC(C2CCCOC2)CC1=O (stereo not shown) [2-{1-[2-(3-chloroallyloxy)iminopropyl]-butyl}-3-hydroxy-5-(tetrahydropyran-3-yl)cyclohex-2-enone]
